Patent US20230303710A1, “METHODS AND COMPOSITIONS FOR INHIBITION OF DIHYDROOROTATE DEHYDROGENASE IN COMBINATION WITH AN ANTI-CD38 THERAPEUTIC AGENT” (OHIO STATE INNOVATION FOUNDATION, priority 2019, published 2023)

Assays:
MOLM-13 cells = assay: MOLM-13 xenograft survival study in NCG mice; assay type: in vivo; conditions: Cpd4 10 mg/kg PO TIWK (MWF); Daratumumab 1 µg/g IP TF; Isatuximab 2.5 mg/kg IP TF; start 4 days post engraftment; vehicle 16.5
Description: Xenograft Model Methodology. Animal studies were performed at Charles River Laboratories (CRL). 1E5 MOLM-13 cells were engrafted intravenously into NCG mice (males, 8-12-week old). 4 days post engraftment, mice were randomly enrolled to receive: • 1. Vehicle • 2. 10 mg/kg Cpd 53 orally (daily) • 3. 10 mg/kg Cpd 53 orally (TIWK, Monday, Wednesday, and Friday) • 4. 4 mg/kg BAY2402234 orally (daily) • 5. 1 µg/g Daratumumab via intraperitoneal injection (BIWK, Tuesday and Friday) • 6. 2.5 µg/g Isatuximab via intraperitoneal injection (BIWK, Tuesday and Friday) • 7. Cpd4 (daily) and Daratumumab (BIWK) combination • 8. Cpd4 (TIWK) and Daratumumab (BIWK) combination • 9. BAY2402234 (daily) and Daratumumab (BIWK) combination • 10. Cpd4 (daily) and Isatuximab (BIWK) combination • 11. […]
Procedures used in the study are as follows: • Mice with 1×10^5 MOLM-13 tumor cells in 0% Matrigel iv tail vein. • Study start is 4 days post implant • Animals were randomized into treatment groups based on Day 1 bodyweight. • Cell Injection Volume was 0.2 mL/mouse. • Age at Start Date: 8 to 12 weeks. • Body Weight: qd x 5 then biwk to end • Any individual animal with a single observation of > than 30% body weight loss or three consecutive measurements of >25% body weight loss was euthanized. • Any group with a mean body weight loss of >20 % or >10% mortality ceased dosing. […] Animals were to be monitored individually. […]

[1] = tested on: MV-411 cells with mutant p53; assay: CD38 surface expression by flow cytometry in MV-411 cells with mutant p53; assay type: cell-based; conditions: 1 µM, 72 hours, versus vehicle
Description: (§1) FIGS. 1A-1B show representative data for the effect of a representative DHODH inhibitor on the expression of CD38 in AML cells. Briefly, MV-411 cells with wild type (WT) p53 (FIG. 1A) or mutant p53 (FIG. 1B) were treated with brequinar (BRQ, 1 µM), or Cpd3 (1 µM) for 72 hours, and then the CD38 surface expression was determined by flow cytometry. The CD38 mean fluorescent intensity (MFI) is calculated based on the X-median expression.
(§2) MV-411 cells with wild type (WT) p53 or mutant p53 were treated with brequinar (BRQ, 1 µM), or Cpd3 (1 µM) for 72 hours. CD38 surface expression was determined by flow cytometry. The CD38 mean fluorescent intensity (MFI) is calculated based on the X-median expression. FIG. 1A show data obtained with MV-411 having wild type p53. […] FIG. 1B show the results obtained with MV-411 having a mutant p53.

MV4-11 cells = assay: MV4-11 xenograft (secondary engraftment) survival study in NSG mice; assay type: in vivo; conditions: Cpd3 50 mg/kg PO MWF, daratumumab 1 µg/g IP TF
Description: FIGS. 2A-2D show representative data for the effect of a representative DHODH inhibitor in combination with an anti-CD38 antibody in a mouse xenograft model. FIG. 2A show representative data for percent survival versus time post-engraftment. Briefly, NSG mice were injected with 0.3 × 10^6 spleen cells from an MV4-11 engrafted leukemic donor mouse (N=7 per group). Starting at day 7 post-engraftment, mice were treated with vehicle; 50 mg/kg Cpd3 (PO; indicated as “Cpd3 PO” in the figure) on a dosing schedule of Monday/Wednesday/Friday (MWF); 1 µg/g daratumumab (IP; indicated as “Dara IP” in the figure) on a dosing schedule of Tuesday and Friday (TF); or Cpd3 and daratumumab combination (indicated as “Cpd3+Dara” in the figure). The Cpd3 and daratumumab combination treatment comprised dosing with 50 mg/kg Cpd3 on a dosing scheduled of Monday/Wednesday/Friday and dosing with 1 µg/g daratumumab on a dosing schedule of Tuesday and Friday (TF). Mice were monitored until reaching early/end removal criteria (ERC) and overall survival was calculated using Kapler Meyer analysis. The arrow indicates start of treatment. […] The treatment type is indicated below each photographic image as outlined for FIG. 2A. […] Weight loss is typically associated with leukemia progression and has also been associated with DHODH inhibitor treatment. […] Briefly, Spleens were isolated from the animals from each treatment group as they reached ERC. The percentage of human CD45+ cells in the spleen were determined by flow cytometry.
Xenograft Model Methodology. Animal studies were approved by the Institutional Laboratory Animal Care and Use Committee (IACUC) at the Ohio State University. 1E7 M4-11 cells were engrafted intravenously into NSG mice (males, 12-week old, strain NOD.Cg-Prkdcscid ll2rgtm1Wjl/SzJ). These mice were allowed to develop a fatal leukemia, at which point splenocytes containing leukemia cells were collected and cryopreserved. […] Overall survival was calculated using Kapler Meyer analysis. […]

[2] = tested on: MV-411 cells with wild type (WT) p53; assay: CD38 surface expression by flow cytometry in MV-411 cells with wild type p53; assay type: cell-based; conditions: 1 µM, 72 hours, versus vehicle
Description: as §1, §2

[3] = tested on: a variety of unrelated viruses; conditions: Harvey et al. (2009) Antiviral Res.; read-out: EC50, inhibition of virus replication in vitro; cited from earlier work

CCCCOc1cccc(-c2ccc(-c3cc(C(=O)O)c4cc(F)ccc4n3)cc2)c1 [Cpd4, 2-(3′-butoxy-[1,1′-biphenyl]-4-yl)-6-fluoroquinoline-4-carboxylic acid]
Median survival (MOLM-13 cells): 43 days

CCOc1ccc(-c2ccc(-c3cc(C(=O)O)c4cc(F)ccc4n3)cc2)cc1 [Cpd3, 2-(4′-ethoxy-[1,1′-biphenyl]-4-yl)-6-fluoroquinoline-4-carboxylic acid]
CD38 surface expression (mean fluorescent intensity) [1]: highly upregulated
survival compared to the vehicle treatment control group / other treatment groups (MV4-11 cells; FIG. 2A): modest improvement in survival
Estimated median survival time (days PE) (MV4-11 cells; start day 7 post-engraftment, vehicle 35 days): 42 days
N died (MV4-11 cells; N=7 per group, start day 7 post-engraftment): 7
CD38 surface expression (mean fluorescent intensity) [2]: upregulated

O=C(N[C@@H]1CCCc2c1[nH]c1ccc(Cl)cc21)c1ccccn1 [GSK983]
EC50 [3]: 5 to 20 nM

Cc1c(-c2ccc(-c3ccccc3F)cc2)nc2ccc(F)cc2c1C(=O)O [brequinar, reference compound]
CD38 surface expression (mean fluorescent intensity) [1]: highly upregulated
CD38 surface expression (mean fluorescent intensity) [2]: upregulated
